According to paper PMC7906907, “Targeting STAT3 by a small molecule suppresses pancreatic cancer progression” (Oncogene, 2021):
Values joined by “and” are separate entries in the source; they are usually repeats but may differ in a detail not shown here. Identical values can stand only once.

How the values were obtained:
[1] = tested on: CAPAN-2, PANC-1, and MIAPACA-2 cells; assay: Colony formation; format: cell-based; conditions: 7 days
Experimental: Fig. 4 N4 suppresses pancreatic cancer cell proliferation and migration and induces apoptosis. A Pancreatic cancer cells (CAPAN-2, PANC-1, MIAPACA-2, BXPC-3, HPAC, and CFPAC-1) and normal cells (HPNE, HAF) were incubated with the indicated concentration of N4 for 48 h. MTS assays were performed to detect the N4-mediated inhibition of cell proliferation. Data are shown as mean ± SD, *P < 0.05, **P < 0.01, ***P < 0.001, ****P < 0.0001, n.s. not significant by one-way ANOVA followed by multiple comparisons. B, C CAPAN-2, PANC-1, and MIAPACA-2 cells were treated with N4 (B) or C188-9 (C) for 7 days. The cells fixed and stained, and colony numbers were calculated. Experiments were carried out in triplicate with identical results obtained. […] Apoptotic cells were analyzed as described in Materials and Methods. […] In F, after 48 h transfection, transfected cells were seeded in 96-well plates, and cells were enumerated at day 1, day 2, and day 4, In G, different cells transfected with different siRNA were treated with the indicated concentrations of N4, and cell viability measured after a 48 h treatment. Data are expressed as mean ± SD, *P < 0.05, ***P < 0.001, n.s. not significant by one-way ANOVA followed by multiple comparisons. […] Data are expressed as mean ± SD, *P < 0.05, ***P < 0.001, n.s. not significant; Student’s t tests were performed. […]

[2] = molecular target: His-STAT3^127-722 protein (Homo sapiens, UniProt P40763); assay: Fluorescence polarization (FP) assay, STAT3-phosphopeptide interaction; format: binding; design: We purified amino acids 127–722 of the STAT3 protein for this assay; made in house; conditions: N4 pre-incubated with STAT3 protein 1 h, then 10 nM labeled peptide 1 h; read-out: IC50, block of the STAT3-peptide interaction
Sequence of His-STAT3^127-722 protein (P40763 127-722): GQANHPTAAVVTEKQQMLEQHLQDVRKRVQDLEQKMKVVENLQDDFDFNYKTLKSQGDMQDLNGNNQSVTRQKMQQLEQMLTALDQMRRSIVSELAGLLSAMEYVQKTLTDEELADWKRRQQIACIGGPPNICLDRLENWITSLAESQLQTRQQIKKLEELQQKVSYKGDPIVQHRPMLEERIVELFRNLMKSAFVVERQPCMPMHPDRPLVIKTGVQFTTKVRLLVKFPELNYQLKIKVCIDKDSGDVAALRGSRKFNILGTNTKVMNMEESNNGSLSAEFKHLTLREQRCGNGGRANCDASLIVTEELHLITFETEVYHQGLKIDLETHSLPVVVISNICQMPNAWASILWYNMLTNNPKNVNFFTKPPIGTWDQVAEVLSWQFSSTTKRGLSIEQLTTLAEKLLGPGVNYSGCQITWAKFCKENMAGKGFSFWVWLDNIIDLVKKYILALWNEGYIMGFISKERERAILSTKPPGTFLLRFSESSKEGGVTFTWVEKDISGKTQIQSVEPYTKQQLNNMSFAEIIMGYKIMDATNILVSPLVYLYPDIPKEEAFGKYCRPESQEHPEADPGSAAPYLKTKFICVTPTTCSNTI
Experimental: A Purified STAT3 protein was incubated with labeled phosphopeptide, 5-carboxyfluorescein-GpYLPQTV-NH2 for 1 h at 37 °C. FP signals were measured, and the data were analyzed using Graph Pad 7.0 software. […] C Different concentrations of N4 were pre-incubated with recombined STAT3 protein for 1 h, then 10 nM of labeled peptide was added for 1 h. The IC50 was calculated using Graph Pad 7.0.
The labeled phosphopeptide: 5-carboxyfluorescein-GpYLPQTV-NH2 (where pY represents phospho-Tyr) was used as the STAT3 binding probe. To evaluate the effect of compounds in inhibiting STAT3-peptide interaction, serial dilutions of the STAT3 competitors were prepared. The diluted compounds were added to the reaction mixture in 100 μl of FP buffer (50 mM HEPES, pH 7.5, 150 mM NaCl, 0.1% NP-40, and 1 mM dithiothreitol) containing 500 nM his-STAT3^127–722 protein for pre-incubation at 37 °C for 1 h. Then, 10 nM of the labeled peptide was added and incubated for 1 h. After incubation, FP was measured on a Cytation^TM 5 cell imaging multi-mode Reader (BioTek) using excitation and emission wavelengths of 480 nm and 535 nm, respectively. Each reaction was repeated two or three times. Binding or competitive parameters were calculated from a nonlinear regression using GraphPad Prism 7.0.

COc1cc2c(cc1C(=O)Nc1cccc3cccnc13)CCC1C(C)(C)C(=O)C(C#N)=C[C@]21C (some centres unmarked) [N4]
colony formation, compared with C188-9 and BP-1-102 [1]: more potently inhibited
IC50 [2]: 570 nM and 568 nM
